The test system of data set [1] is H1299 cells. Put plainly: 72-h MTT viability assay, H1299. It is filed as cell-based, human. The settings on record: Homo sapiens, NCI-H1299, 72 h, 72 h incubation, mean of 3 experiments +/-SD. An excerpt:
(§1) The IC50 for cell viability was described with a dose of the drug, with a 50% reduction in the whole population, when compared to the untreated controls. The obtained results allow for a comparison of different compounds, using the same or different targeted cell lines. Cell survival fractions (SF), followed by the MTT 72-h viability assay for the HCT116 and SH-5YSY cells, are presented in the Supplementary File (Figure S1).
(§2) For cytological studies, human cancer cell lines were chosen, with special emphasis on the colorectal, HCT116, and neuroblastoma SH-5YSY cell lines, as well as lung normal epithelial BEAS-2B and cancer H1299 and A549 cancer cell lines (all obtained from the ATTC collection; Manassas, VA, USA). The cells were harvested under the standard conditions in incubator (5% CO2, 37 °C and 60% humidity; Panasonic model MCO-19 AIC). Cells were cultured in T75 mL sterile bottles (Sartedt), using DMEM-F12 medium (Merck, Poznań, Poland) supplemented with 10% of Fetal Bovine Serum (EURx, Gdańsk, Poland). During the experimental procedure, each cell line wasn’t more than 60–80% confluenced, no older than maximal number of passages 30. For adherent cell passages, the enzyme trypsin working solution, prepared in sodium phosphate buffer saline (PBS, pH = 7.4; PAN-Biotech Gmbh, Aidenbach, Germany), was used. The tested compounds were prepared as […] stocks in 100% DMSO (Merck, Poznań, Poland), and were stored at −20 °C. Before use in cytological studies, the working solution of each compound was prepared directly in complete DMEM-F12 medium. A positive-control, anticancer drug, etoposide (Merck, Poznań, Poland), was dissolved and prepared as solutions with doses of 20, 10, 5, 2.5, 1.25, 0.63 µM (0 µM for control, untreated cells in DMEM-F12 without any tested compound additions), respectively.
(§3) HCT116 and SH-5YSY cells collected after trypsinization were counted under the Bürker’s chamber, and 2000 or 5000 cells were seeded on each well of the 96-well-format sterile plate (Sarstedt, Nümbrecht, Germany), in 100 µL of complete DMEM-F12 medium, respectively. Twenty-four hours before compound addition, the cells were monitored directly on plates; only well-attached cells were used for treatments with background controls (DMSO with final maximal concentration of 1%) and untreated controls. The normal lung (BEAS-2B) and cancer (H1299 and […]) cell lines were cultured and prepared for viability MTT assay in similar way. To treat wells, 100 µL of tested compounds in fresh medium were added at concentration range of 100, 50, 25, 12.5, 6.25, 3.13 µM (0 µM for control, untreated cells in DMEM-F12 without any tested compound additions). An etoposide as a positive control, as anticancer drug, was prepared in similar way. Followed by 72 h of incubation, the viability assay was performed according to the producer protocol (Promega, Madison, WI, USA), where the medium and compounds were removed and cells were washed with PBS solution. A yellow tetrazolium salt (3-(4,5-dimethylthiazol-2-yl)-2,5-diphenyltetrazolium bromide solution (0.5 mg/mL) in serum and phenol red-free DMEM (Merck, Poznań, Poland) was added to each well on plates at a volume of 50 µL for 2–3 h of darkness, at 37 °C incubation. The purple formazan crystals were produced only by the viable cells, containing NAD (P)H-dependent oxidoreductase enzymes, which reduce the MTT. The crystals were dissolved in acidic (0.04 M HCl) 2-propanolol solution (Merck, Poznań, Poland) after addition of 75 µL of dissolving mixture to each well on plates for 5–10 min in darkness and at room-temperature (RT) incubation. The absorption at 570 nm was measured directly using multiplate reader (Epoch, BioTek, Winooski, VT, USA). Each time, the biological experiments were repeated three times.
(§4) Obtained absorbance was analyzed for proliferation and survival fraction (SF) assessments, where tested samples were compared to the untreated controls (100%). […]
(Tetrazolium assays rely on reduction of a dye to a coloured formazan, in cell work by metabolically active cells.)

Data set [2] concerns HCT116 cells. As to the kind of experiment: 72-h MTT viability assay, HCT116. It is filed as cell-based, human. The note with it: 72 h incubation, mean of 3 experiments +/-SD.
Source text: as §1, §2, §3, §4

The test system of data set [3] is SH-SY5Y cells. Put plainly: 72-h MTT viability assay, SH-SY5Y. The format is cell-based, human. The settings on record: 72 h incubation, mean of 3 experiments +/-SD, no effect = viability (SF) similar to control, about 100%; for IC50: Homo sapiens, SH-SY5Y.
Source text: as §1, §2, §3, §4

Data set [4] concerns BEAS-2B cells. As to the kind of experiment: 72-h MTT viability assay, normal lung epithelial BEAS-2B. It is filed as cell-based, human. The note with it: 72 h incubation, mean of 3 experiments +/-SD, no effect = viability (SF) similar to control, about 100%; for IC50: Homo sapiens, BEAS-2B.
Source text: as §1, §2, §3, §4

Data set [5] concerns A549 cells. As to the kind of experiment: 72-h MTT viability assay, A549. It is filed as cell-based, human. The note with it: 72 h incubation, mean of 3 experiments +/-SD.
Source text: as §1, §2, §3, §4

11 compounds from paper PMC10096123, “14-Substituted Diquinothiazines as a New Group of Anticancer Agents” (Molecules, 2023) can be followed below.

Broadly, the IC50 is the midpoint of a concentration-inhibition curve. Read a high IC50 as lower potency. What is called melting point is the temperature, or range, at which the solid turns liquid.

Entries after “also recorded” stand apart in the source; their conditions may differ.

In the case of `c1ccc2c3c(cnc2c1)Sc1cnc2ccccc2c1N3CCN1CCCC1` [Compound 2a, 14-(pyrrolidinylethyl)diquinothiazine], the IC50 in data set [1] stood at 8.1 ± 1.83 µM; in data set [2] (Homo sapiens, HCT-116, 72 h), 11.1 ± 3.39 µM; in data set [3] it was 6.5 ± 1.22 µM; in data set [4], 84.5 ± 11.1 µM; in data set [5] (Homo sapiens, A549, 72 h) it was 13.3 ± 2.23 µM.
The corresponding values for `O=C1CCCN1CCCN1c2c(cnc3ccccc23)Sc2cnc3ccccc3c21` [Compound 2b, 14-(pyrrolidinonylpropyl)diquinothiazine] are 5.3 ± 1.04 µM, 9.4 ± 4.41 µM, 7.7 ± 2.59 µM, 83.5 ± 12.3 µM and 12.4 ± 2.25 µM.
As to `c1ccc2c3c(cnc2c1)Sc1cnc2ccccc2c1N3CCN1CCCCC1` [Compound 2c], the IC50 in data set [1] is 7.5 ± 1.97 µM; in data set [3], 14.3 ± 1.49 µM; in data set [5] (Homo sapiens, A549, 72 h), 14.7 ± 2.81 µM. Further, the “IC50 BEAS-2B” value in data set [4] is given as “no effect”.
With `c1ccc2c3c(cnc2c1)Sc1cnc2ccccc2c1N3CCN1CCOCC1` [Compound 2d], the IC50 in data set [1] was determined as 8.9 ± 1.02 µM; in data set [2] (Homo sapiens, HCT-116, 72 h) it was 23.1 ± 1.37 µM; in data set [3], 13.5 ± 2.69 µM; in data set [4], 118 ± 18.4 µM; in data set [5] (Homo sapiens, A549, 72 h), 20.7 ± 2.25 µM.
In the same order, the values of `c1ccc2c3c(cnc2c1)Sc1cnc2ccccc2c1N3CCN1CCNCC1` [Compound 2e, 14-(piperazinyloethyl)dichinotiazyny] are 7 ± 1.85 µM, 10.3 ± 1.82 µM, 4.9 ± 0.87 µM, 26.5 ± 1.85 µM and 10.1 ± 2.26 µM.
With `CCN(CC)CCN1c2c(cnc3ccccc23)Sc2cnc3ccccc3c21` [Compound 2f], the IC50 in data set [1] came to 22.2 ± 3.83 µM; in data set [2] (Homo sapiens, HCT-116, 72 h) it was 16.9 ± 1.73 µM; in data set [4], 122 ± 12 µM; in data set [5] (Homo sapiens, A549, 72 h) it was 27.9 ± 2.07 µM. Also, in data set [3], the “IC50 SH-SY5Y” value was “inactive; also recorded: no effect”.
As for `CN(C)CCCN1c2c(cnc3ccccc23)Sc2cnc3ccccc3c21` [Compound 2g], the IC50 in data set [1] is 24.5 ± 1.91 µM; in data set [2] (Homo sapiens, HCT-116, 72 h) it was 13.1 ± 1.82 µM; in data set [5] (Homo sapiens, A549, 72 h), 31.5 ± 2.36 µM. For the same compound, the “IC50 SH-SY5Y” value in data set [3] is “inactive; also recorded: no effect”. Moreover, the “IC50 BEAS-2B” value in data set [4] is “no effect”.
Turning to `N#Cc1ccc(N2c3c(cnc4ccccc34)Sc3cnc4ccccc4c32)cc1` [Compound 3a, 14-(4-cyanophenyl)diquinothiazine], the melting point is > 300 °C. The 50% inhibitory concentration (IC50) in data set [1] is 3.7 ± 0.91 µM. Also, 4.9 ± 1.97 µM corresponded to half-maximal inhibition in data set [2] (IC50). The IC50 in data set [2] (Homo sapiens, HCT-116, 72 h) was < 8.6 µM. The “IC50 SH-SY5Y” value in data set [3] is “inactive; also recorded: no effect”. For the same compound, the “IC50 BEAS-2B” value in data set [4] was “no effect”. In data set [5] (Homo sapiens, A549, 72 h), this compound displayed an IC50 of 84.9 ± 12.1 µM.
With `FC(F)(F)c1ccc(N2c3c(cnc4ccccc34)Sc3cnc4ccccc4c32)cc1` [Compound 3b, 14-(4-trifluoromethylphenyl)diquinothiazine], the melting point lay within 292 to 293 °C. In addition, in data set [1], the IC50 amounted to 14.6 ± 1.92 µM. Further, inhibition in data set [2] (Homo sapiens, HCT-116, 72 h) was half-maximal at 17.1 ± 4.81 µM (IC50). The “IC50 SH-SY5Y” value in data set [3] is “inactive; also recorded: no effect”. Also, it took 86.1 ± 11 µM to reach half-maximal inhibition in data set [4] (IC50). In addition, the IC50 in data set [5] (Homo sapiens, A549, 72 h) came to 42.5 ± 16.5 µM.
With `c1ccc2c3c(cnc2c1)Sc1cnc2ccccc2c1N3` [Compound M0], the IC50 was 67.2 ± 9.64 µM in data set [1]; 5.8 ± 0.63 µM in data set [2] (Homo sapiens, HCT-116, 72 h); 18 ± 3.09 µM in data set [5] (Homo sapiens, A549, 72 h). Moreover, the “IC50 SH-SY5Y” value in data set [3] was “inactive; also recorded: no effect”. Also, the “IC50 BEAS-2B” value in data set [4] is given as “no effect”.
As to `COc1cc([C@@H]2c3cc4c(cc3[C@@H](O[C@@H]3O[C@@H]5CO[C@@H](C)O[C@H]5[C@H](O)[C@H]3O)[C@H]3COC(=O)[C@H]23)OCO4)cc(OC)c1O` [etoposide, reference compound], the IC50 in data set [1] amounted to 0.6 ± 0.16 µM; in data set [2] (Homo sapiens, HCT-116, 72 h) it was 8.6 ± 1.42 µM; in data set [3], 3.9 ± 0.76 µM; in data set [4], 0.00311 ± 0.0002 µM; in data set [5], 4.48 ± 0.21 µM; in data set [5] (listed as etopiside), 44.8 µM.
